In patent US10443044B2, “Generating cardiac progenitor cells from pluripotent stem cells using isoxazole or isoxazole like compounds” (IPS Heart, priority 2014, dated 2019):
Entries after “also recorded” stand apart in the source; their conditions may differ. Blank lines part the entries; values can stand above or below the compound they belong to.

Assays:
[1] = test system: Nkx-2.5; assay: Cardiac gene expression, RT-PCR and immunostaining; format: cell-based, mouse
Experimental: (§1) In order to direct SiPS towards cardiac lineage cells, they were treated with a small molecule (Isoxazole, 20 uM, Sigma-Aldrich or ISX-9, StemCell Technologies, Inc Vancouver, BC) for five days and analyzed for DNA methyltransferase (Dnmt) activity, cell proliferation, and cardiac gene expression.
Total RNA from small molecule treated and non-treated SiPS cells was isolated using RNeasy mini kit (Qiagen, Maryland, USA) and Omniscript Reverse Transcription kit (Qiagen, Maryland, USA) was used for the respective cDNA synthesis per manufacturer's instructions. […] PCR conditions included initial denaturation at 95° C. for 4 minutes, 32 cycles of denaturation at 95° C. for 1 minute, annealing at 55° C. for 1 minute, extension at 72° C. for 1 minute and final extension at 72° C. for 7 minutes. The PCR products were separated on 1.5% agarose gel, stained with ethidium bromide and visualized and photographed on a UV transluminator (Bio-Rad, USA).
For immunocytochemistry, differentiated colonies of SiPS were immunostained with respective specific primary antibodies (anti-Oct3/4, anti-Sox2, anti-Nanog antibodies, all at 1:100 concentration; Cell Signaling, Danvers, USA). […] The primary antibody-antigen reaction was detected with fluorescently conjugated specific secondary antibodies. […] Fluorescence signals were observed and photographed using fluorescence microscopy (Olympus; Tokyo, Japan).

[2] = test system: SiPS; assay: Cell proliferation assay (MTS); format: cell-based, mouse; conditions: treated vs non treated SiPS, p<0.01; listed as small molecule
Experimental: as §1
The cell proliferation assay was performed with the use of the MTS [3-(4,5-dimethylthiazol-2-yl)-5-(3-carboxymethoxyphenyl)-2-(4-sulfophenyl)-2H-tetrazolium] assay according to the manufacturer's recommendations (Promega). The plates were read at 490 nm using an automated ELISA plate-reader for the quantity of formazan product which was directly proportional to the number of living cells in culture.

[3] = test system: IPS cells; assay: Affymetrix array-based gene expression profiling; format: cell-based, mouse
Experimental: as §1
(§2) Approximately 60% treated iPS cells were positive for Nkx-2.5. Given that posttranscriptional regulation is crucial for gene expression and cell survival molecular phenotypic analysis was performed, Affymetrix array-based gene expression profiling further confirmed 2-3 folds downregulation of Dnmt1, Dnmt3b and Max gene associated protein which were associated with global DNA hypomethylation and myc dependent cell transformation (see Table 1). Additionally, there was a 2-3 fold concomitant upregulation in the CCL7, CXCR2, CXCR5, integral membrane protein 2A, and ephrin A3. (FIG. 6).
Affymetrix array-based gene expression profiling further confirmed 2-3 folds downregulation of Dnmt1, Dnmt3b and Max gene associated protein which were associated with global DNA hypomethylation and myc dependent cell transformation. In addition, there was 2-3 folds concomitant upregulation of CCL7, CXCR2, CXCR5, integral membrane protein 2A, and EphrinA3.

[4] = test system: IPS cells; assay: miR microarray analysis; format: cell-based, mouse; conditions: treated vs non-treated IPS cells
Experimental: FIGS. 7A-7E show miR-microarray analysis of small molecule, isoxazole like compounds treated IPS vs non-treated IPS cells. Microarray analysis showing miR expression profile in non-treated IPS cells was quite different from small molecule treated IPS cells.
as §2

[5] = test system: IPS cells; assay: Cytochrome c translocation to cytoplasm after H2O2, immunostaining; format: cell-based, mouse; conditions: after exposure to H2O2 (100 μmol), vs non-treated IPS cells
Experimental: Immunostaining of cytochrome c in non-treated and small molecule, isoxazole or isoxazole like compounds treated IPS cells after exposure to H2O2 ([…]), (merged images with DAPI), (original magnifications; 200×).
as §1

[6] = test system: IPS cells; assay: Oxidant induced apoptosis, TUNEL assay; format: cell-based, mouse; conditions: pretreated IPS vs non-treated IPS, listed as small molecule
Experimental: In FIG. 3A, apoptosis was determined by TUNEL assay. […] All values were expressed as mean±SEM, * p<0.05 vs. control.
as §1

[7] = test system: Human iPSC line (ACS-1021); assay: Generation of cardiac progenitor cells from human iPS cells and differentiation into three lineages; format: cell-based
[8] = test system: DNA methyltransferase (DNMT); assay: DNA methyltransferase (DNMT) activity assay in small molecule treated SiPS; format: cell-based, mouse
Experimental: as §1
Nuclear extracts were isolated using the NE-PER Nuclear and Cytoplasmic Extraction Kit (Thermo Scientific, IL USA). Total DNMT activity was determined using an EpiQuik DNA methyltransferase activity assay kit (Epigentek, Brooklyn, N.Y.) per manufacturer's protocol. Enzyme activity for samples and controls was measured on a microplate reader (Hidex Chameleon, Finland) at 450 nm and DNMT activity (OD/h/ml) was calculated according to the formula: (Sample OD−blank OD)/(sample volume)×1000.

[9] = test system: Gαi; assay: Western blot of Gα protein (GPCR signaling); format: cell-based, mouse
[10] = test system: Skeletal myoblasts (SMs) from Oct3/4-GFP+ transgenic mouse; assay: Reprogramming of skeletal myoblasts to iPS cells; format: cell-based; conditions: 500 μM in 0.5% DMSO, 5-days; two weeks later
Experimental: Skeletal myoblasts (SMs) purified from young male Oct3/4-GFP^+ transgenic mouse were treated with DNA methyltransferase inhibitor 500 μM RG-108 in 0.5% DMSO in knock out DMEM for 5-days. […] Although the research described herein was conducted in a murine model, the use of the same markers and agents will provide similar if not identical results in human cells and tissue.

[11] = Affymetrix array, treated vs non-treated iPS cells
[12] = IPs + Small Molecule, regulation down
[13] = IPs + Small Molecule, regulation up
[14] = basal differentiation conditions
[15] = hiPSC, 7 day small molecule treatment

DNMT activity ([8]; SiPS, 20 uM, five days): completely abolished
Compound: O=C(NC1CC1)c1cc(-c2cccs2)on1 [ISX-9, N-cyclopropyl-5-thiophen-2-yl-1,2-oxazole-3-carboxamide]
treated iPS cells positive for Nkx-2.5 ([1]; SiPS, 20 uM, five days): Approximately 60%
Nkx-2.5 expression, RT-PCR ([1]; treated vs non treated IPS, p<0.01): significant upregulation
proliferative activity / mitogenic response [2]: increased proliferative activity; also recorded: increase in mitogenic response
downregulation of Dnmt1, Dnmt3b and Max gene associated protein [3, 11]: 2-3 folds
upregulation of CCL7, CXCL2, CXCL5, integral membrane protein 2A and ephrin A3 [3, 11]: 2-3 fold
Fold change Dnmt1, DNA methyltransferase [3, 12]: −1.612 fold
Fold change Dnmt3b, DNA methyltransferase 3B [3, 12]: −1.282 fold
Fold change Mga, MAX gene associated protein [3, 12]: −1.104 fold
Fold change Ccl7, chemokine (C-C motif) ligand 7 [3, 13]: 3.316 fold
Fold change Cox6b1, cytochrome c oxidase subunit VIb polypeptide 1 [3, 13]: 2.546 fold
Fold change Cox16, COX16 cytochrome c oxidase assembly homolog [3, 13]: 3.006 fold
Fold change Cxcl2, chemokine (C-X-C motif) ligand 2 [3, 13]: 2.732 fold
Fold change Cxcl5, chemokine (C-X-C motif) ligand 5 [3, 13]: 2.137 fold
Fold change Efna3, ephrin A3 [3, 13]: 2.088 fold
Fold change Itm2a, integral membrane protein 2A [3, 13]: 2.255 fold
Fold change Itm2b, integral membrane protein 2B [3, 13]: 2.18 fold
Fold change Uqcr10, ubiquinol-cytochrome c reductase complex III subunit X [3, 13]: 2.298 fold
cardiac specific miR-133, miR-762 expression [4]: upregulation
pluripotency associated miR-290 cluster, miR-574-5p and let-7 family expression [4]: down regulation
cytochrome c translocation to cytoplasm [5]: significant decrease
apoptosis (TUNEL positive cells) [6]: tolerant to apoptosis; also recorded: reduced the apoptosis; also recorded: Fewer TUNEL positive cells/microscopic field
expression of CPC markers including Nkx2.5 and GATA4, RT-PCR and immunostaining ([7]; 20 μM, 7 days, RPMI/B27 minus insulin): observed
spontaneous beating (cardiomyocyte differentiation) ([7]; 7 days treatment, then RPMI/B27 with insulin 7-10 days, end of 20 days): all the cells began spontaneous beating
percentage of CMs (TnT+) from Nkx2.5+ cells [7, 14]: 95.2±2.1%
percentage of ECs (CD31+) from Nkx2.5+ cells [7, 14]: 90.3±2.5%
percentage of SMCs (α-SMA+) from Nkx2.5+ cells [7, 14]: 92.3±1.8%
purity of Nkx2.5 positive cells by FACS [7, 15]: 96.5±2.5%
transcription factors (Nkx2.5, GATA4 and ISL-1), immunofluorescence staining [7, 15]: highly expressed
α-SMA and calponin expression, immunostaining ([7]; induced CPC in DMEM-F12 with TGFβ and PDGFBB, 10 days): observed
endothelial cell markers CD31 and VE-cadherin ([7]; induced CPC in EGM-2 medium, 10 days): expressed
converting iPSC into cardiac progenitors including endothelial/vascular progenitors and smooth muscle cells ([7]; overall conclusion): very effective
reduction in global DNA methylation ([8]; SiPS, 20 uM, five days, FIG. 2): 95%
inhibition of DNA methyltransferase activity ([8]; treated IPS cells vs nontreated IPS cells, FIG. 2): 95%
Gαi / Gα (pan) protein level ([9]; Western blot, treated vs untreated IPS cells): significant upregulation

Compound: O=C(O)C(Cc1c[nH]c2ccccc12)N1C(=O)c2ccccc2C1=O [RG-108, N-phthalyl-L-tryptopha]
generation of iPS cell colonies [10]: GFP^+ colonies of SM derived iPS cells (SiPS)

Compound: pertussis toxin
effect on small molecule induced Gα (pan) upregulation ([9]; concomitant use with small molecule in IPS cells): blocked
